Results as given in patent publication US20150105252A1, “SUBSTITUTED PYRAZOLES AS HERBICIDES” (E I DU PONT DE NEMOURS AND COMPANY, priority 2013, published 2015).

Columns and labels:
foxtail, giant = assay: Test A preemergence; format: in vivo, Setaria faberii; conditions: preemergence; for Foxtail, Giant plant response rating (0 to 100 scale): 125 g ai/ha, visual injury approx. 10 days after treatment; for Foxtail, Giant plant response rating: 500 g ai/ha, visual injury after approx. 10 days, 0 to 100 scale (0 no effect, 100 complete control)
Procedure, shortened: (§1)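 Injury readout: eye-scored versus untreated controls, 0 to 100. Exposure period: ~10 days, greenhouse. Application: soil-directed spray over sown seed (pre) or spray on seedlings 2–10 cm tall with one or two leaves (post), compound carried in non-phytotoxic solvent including surfactant.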

pigweed [1] = assay: Test A preemergence; format: in vivo, Amaranthus retroflexus; conditions: preemergence; for Pigweed plant response rating (0 to 100 scale): 125 g ai/ha, visual injury approx. 10 days after treatment; for Pigweed plant response rating: 500 g ai/ha, visual injury after approx. 10 days, 0 to 100 scale (0 no effect, 100 complete control)
Procedure, shortened: as §1

corn [2] = assay: Test A preemergence; format: in vivo, Zea mays; conditions: preemergence; for Corn plant response rating (0 to 100 scale): 125 g ai/ha, visual injury approx. 10 days after treatment; for Corn plant response rating: 500 g ai/ha, visual injury after approx. 10 days, 0 to 100 scale (0 no effect, 100 complete control)
Procedure, shortened: as §1

wheat [3] = assay: Test A postemergence; format: in vivo, Triticum aestivum; conditions: Postemergence
Procedure, shortened: as §1

wheat [4] = assay: Test C preemergence; format: in vivo, Triticum aestivum; conditions: preemergence; for Plant response rating, Wheat: 125 g ai/ha, scale 0 to 100, 0 = no effect, 100 = complete control
Procedure, shortened: (§2)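 Seeds were sown in a loam soil–sand blend and sprayed preemergence with compounds formulated in a non-phytotoxic solvent mixture containing surfactant. Postemergence plants, grown in peat/vermiculite medium to 2–18 cm (1- to 4-leaf stage), received the same formulation. After 13 to 15 days in a greenhouse, injury was rated visually against controls (0 = no effect, 100 = complete control).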

corn [5] = assay: Test C preemergence; format: in vivo, Zea mays; conditions: preemergence; for Plant response rating, Corn: 125 g ai/ha, scale 0 to 100, 0 = no effect, 100 = complete control
Procedure, shortened: as §2

crabgrass, large = assay: Test C preemergence; format: in vivo, Digitaria sanguinalis; conditions: preemergence; for Plant response rating, Crabgrass, Large: 125 g ai/ha, scale 0 to 100, 0 = no effect, 100 = complete control
Procedure, shortened: as §2

johnsongrass = assay: Test C preemergence; format: in vivo, Sorghum halepense; conditions: preemergence; for Plant response rating, Johnsongrass: 125 g ai/ha, scale 0 to 100, 0 = no effect, 100 = complete control
Procedure, shortened: as §2

morningglory = assay: Test C preemergence; format: in vivo, Ipomoea coccinea; conditions: preemergence; for Plant response rating, Morningglory: 125 g ai/ha, scale 0 to 100, 0 = no effect, 100 = complete control
Procedure, shortened: as §2

pigweed [6] = assay: Test C preemergence; format: in vivo, Amaranthus retroflexus; conditions: preemergence; for Plant response rating, Pigweed: 125 g ai/ha, scale 0 to 100, 0 = no effect, 100 = complete control
Procedure, shortened: as §2

barnyardgrass = assay: Test C preemergence; format: in vivo, Echinochloa crus-galli; conditions: preemergence; for Plant response rating, Barnyardgrass: 125 g ai/ha, scale 0 to 100, 0 = no effect, 100 = complete control
Procedure, shortened: as §2

waterhemp = assay: Test C preemergence; format: in vivo, Amaranthus rudis; conditions: preemergence; for Plant response rating, Waterhemp: 125 g ai/ha, scale 0 to 100, 0 = no effect, 100 = complete control
Procedure, shortened: as §2

velvetleaf = assay: Test C preemergence; format: in vivo, Abutilon theophrasti; conditions: preemergence; for Plant response rating, Velvetleaf: 125 g ai/ha, scale 0 to 100, 0 = no effect, 100 = complete control
Procedure, shortened: as §2

[7] = 125 g ai/ha, 0 to 100 scale, 0 no effect, 100 complete control
[8] = 500 g ai/ha, 0 to 100 scale (0 no effect, 100 complete control)
[9] = 31 g ai/ha, visual rating, scale 0 to 100 (0 no effect, 100 complete control), 13 to 15 days
[10] = 62 g ai/ha, scale 0 to 100 (0 no effect, 100 complete control), 13 to 15 days
[11] = 250 g ai/ha, scale 0 to 100, 0 is no effect, 100 is complete control

CCOc1cc(C(=O)NC2CC2)nn1Cc1ccnc(C(F)(F)F)c1 [Compound 189]
Foxtail, Giant plant response rating (0 to 100 scale) (foxtail, giant): 100 | Foxtail, Giant plant response rating (foxtail, giant): 100 | Pigweed plant response rating (0 to 100 scale) (pigweed [1]): 0 | Pigweed plant response rating (pigweed [1]): 0 | Corn plant response rating (0 to 100 scale) (corn [2]): 80 | Corn plant response rating (corn [2]): 100 | Wheat plant response rating (wheat [3]; [7]): 80 | Wheat plant response rating (wheat [3]; [8]): 90 | Wheat plant response rating (wheat [4]; [9]): 40 | Wheat plant response rating (wheat [4]; [10]): 80 | Plant response rating, Wheat (wheat [4]; 13 to 15 days): 90 | Wheat plant response rating (wheat [4]; [11]): 90 | Corn plant response rating (corn [5]; [9]): 5 | Corn plant response rating (corn [5]; [10]): 40 | Plant response rating, Corn (corn [5]; 13 to 15 days): 85 | Corn plant response rating (corn [5]; [11]): 98 | Crabgrass, Large plant response rating (crabgrass, large; [9]): 100 | Crabgrass, Large plant response rating (crabgrass, large; [10]): 100 | Plant response rating, Crabgrass, Large (crabgrass, large; 13 to 15 days): 100 | Crabgrass, Large plant response rating (crabgrass, large; [11]): 100 | Johnsongrass plant response rating (johnsongrass; [9]): 65 | Johnsongrass plant response rating (johnsongrass; [10]): 98 | Plant response rating, Johnsongrass (johnsongrass; 13 to 15 days): 100 | Johnsongrass plant response rating (johnsongrass; [11]): 100 | Morningglory plant response rating (morningglory; [9]): 95 | Morningglory plant response rating (morningglory; [10]): 98 | Plant response rating, Morningglory (morningglory; 13 to 15 days): 98 | Morningglory plant response rating (morningglory; [11]): 100 | Pigweed plant response rating (pigweed [6]; [9]): 100 | Pigweed plant response rating (pigweed [6]; [10]): 100 | Plant response rating, Pigweed (pigweed [6]; 13 to 15 days): 100 | Pigweed plant response rating (pigweed [6]; [11]): 100 | Barnyardgrass plant response rating (barnyardgrass; [9]): 95 | Barnyardgrass plant response rating (barnyardgrass; [10]): 100 | Plant response rating, Barnyardgrass (barnyardgrass; 13 to 15 days): 100 | Barnyardgrass plant response rating (barnyardgrass; [11]): 100 | Waterhemp plant response rating (waterhemp; [9]): 100 | Waterhemp plant response rating (waterhemp; [10]): 100 | Plant response rating, Waterhemp (waterhemp; 13 to 15 days): 100 | Waterhemp plant response rating (waterhemp; [11]): 100 | Velvetleaf plant response rating (velvetleaf; [9]): 98 | Velvetleaf plant response rating (velvetleaf; [10]): 100 | Plant response rating, Velvetleaf (velvetleaf; 13 to 15 days): 100 | Velvetleaf plant response rating (velvetleaf; [11]): 100

CCONC(=O)c1cc(OCC)n(Cc2ccnc(C(F)(F)F)c2)n1 [Compound 195]
Foxtail, Giant plant response rating (0 to 100 scale) (foxtail, giant): 90 | Foxtail, Giant plant response rating (foxtail, giant): 90 | Pigweed plant response rating (0 to 100 scale) (pigweed [1]): 100 | Pigweed plant response rating (pigweed [1]): 100 | Corn plant response rating (0 to 100 scale) (corn [2]): 0 | Corn plant response rating (corn [2]): 90 | Wheat plant response rating (wheat [3]; [7]): 90 | Wheat plant response rating (wheat [3]; [8]): 90 | Wheat plant response rating (wheat [4]; [9]): 0 | Wheat plant response rating (wheat [4]; [10]): 45 | Plant response rating, Wheat (wheat [4]; 13 to 15 days): 85 | Wheat plant response rating (wheat [4]; [11]): 90 | Corn plant response rating (corn [5]; [9]): 25 | Corn plant response rating (corn [5]; [10]): 45 | Plant response rating, Corn (corn [5]; 13 to 15 days): 70 | Corn plant response rating (corn [5]; [11]): 95 | Crabgrass, Large plant response rating (crabgrass, large; [9]): 100 | Crabgrass, Large plant response rating (crabgrass, large; [10]): 95 | Plant response rating, Crabgrass, Large (crabgrass, large; 13 to 15 days): 100 | Crabgrass, Large plant response rating (crabgrass, large; [11]): 100 | Johnsongrass plant response rating (johnsongrass; [9]): 5 | Johnsongrass plant response rating (johnsongrass; [10]): 30 | Plant response rating, Johnsongrass (johnsongrass; 13 to 15 days): 75 | Johnsongrass plant response rating (johnsongrass; [11]): 85 | Morningglory plant response rating (morningglory; [9]): 35 | Morningglory plant response rating (morningglory; [10]): 100 | Plant response rating, Morningglory (morningglory; 13 to 15 days): 100 | Morningglory plant response rating (morningglory; [11]): 100 | Pigweed plant response rating (pigweed [6]; [10]): 98 | Plant response rating, Pigweed (pigweed [6]; 13 to 15 days): 100 | Pigweed plant response rating (pigweed [6]; [11]): 100 | Barnyardgrass plant response rating (barnyardgrass; [9]): 60 | Barnyardgrass plant response rating (barnyardgrass; [10]): 85 | Plant response rating, Barnyardgrass (barnyardgrass; 13 to 15 days): 100 | Barnyardgrass plant response rating (barnyardgrass; [11]): 100 | Waterhemp plant response rating (waterhemp; [10]): 100 | Plant response rating, Waterhemp (waterhemp; 13 to 15 days): 100 | Waterhemp plant response rating (waterhemp; [11]): 100 | Velvetleaf plant response rating (velvetleaf; [9]): 15 | Velvetleaf plant response rating (velvetleaf; [10]): 60 | Plant response rating, Velvetleaf (velvetleaf; 13 to 15 days): 100 | Velvetleaf plant response rating (velvetleaf; [11]): 100
